Source: US20230112845A1, “COMPOSITIONS OF BERBERINE URSODE[…] METHODS THEREOF FOR TREATING FATTY LIVER DISEASE, DIABETES AND HYPERLIPIDEMIA” (SHENZHEN HIGHTIDE BIOPHARMACEUTICAL LTD., priority 2020, published 2023)

Tested on: patients with presumed NASH and type 2 diabetes
Test: Phase 2 randomized placebo-controlled trial, 18 weeks: liver fat content (MRI-PDFF), glycemic control, liver enzymes, lipids, body weight, fibrosis markers
Format: in vivo, human
Conditions: for Absolute Change in LFC (%), Mean / Relative Change in LFC (%), Mean / Absolute Change in LFC (%), LS Mean / Relative Change in LFC (%), LS Mean: Efficacy Set; for Absolute Change in LFC (%), Mean: placebo −2.0; for Relative Change in LFC (%), Mean: placebo −8.3; for Absolute Change in LFC (%), LS Mean: placebo −1.8; for Relative Change in LFC (%), LS Mean: placebo −8.2; for Mean change in LDL-c (mg/dL), Mean / Mean change in HbA1c (%), Mean / Relative change in GGT (%), Mean / Mean change in TG (mg/dL), Mean / Mean change in GGT (U/L), Mean / Mean change in ALT (U/L), Mean / Relative change in ALT (%), Mean / Mean change in HbA1c (%), LS Mean / Mean change in LDL-c (mg/dL), LS Mean / Mean change in TG (mg/dL), LS Mean / Mean change in GGT (U/L), LS Mean / Mean change in ALT (U/L), LS Mean: Modified Efficacy Set; for Mean change in LDL-c (mg/dL), Mean: placebo 0; for Mean change in HbA1c (%), Mean / Mean change in HbA1c (%), LS Mean: placebo 0.1; for Relative change in GGT (%), Mean: placebo 5; for Mean change in TG (mg/dL), Mean: placebo 18; for Mean change in GGT (U/L), Mean / Mean change in ALT (U/L), LS Mean: placebo −2; for Mean change in ALT (U/L), Mean: placebo −3; for Relative change in ALT (%), Mean: placebo −6; for Mean change in LDL-c (mg/dL), LS Mean: placebo 1; for Mean change in TG (mg/dL), LS Mean: placebo 19; for Mean change in GGT (U/L), LS Mean: placebo −1; for Mean change in Body weight (kg), Mean / Mean change in Body weight (kg), LS Mean: Safety Set, placebo −1.1; for Proportion achieving ≥ 30% relative reduction in LFC (subjects/total): placebo 7/33; for Proportion achieving ≥ 5% Absolute Reduction in LFC (subjects/total): placebo 8/33; for Proportion achieving ≥ 30% relative reduction in LFC (percent): placebo 21%; for Proportion achieving ≥ 5% Absolute Reduction in LFC (percent): placebo 24%; for decrease in mean HbA1c level: placebo increase of 0.1%
Source text: The aim of this study was to determine the effect of two different doses of BUDCA on liver fat content (LFC) in patients with diabetes and presumed NASH when administered for 18 weeks. This phase 2 clinical trial tested the effect of BUDCA in patients with fatty liver disease and diabetes. The group taking the higher dose of this new drug had significant reductions in the amount of fat in their liver as well as improvement in their diabetes.
A prospective, randomized, placebo-controlled trial of two doses of BUDCA administered orally was conducted in a cohort of 100 subjects with fatty liver disease and diabetes. Treatment was for 18 weeks and endpoints measured included reduction in liver fat content measured by […] proton density fat fraction, improvement in glycemic control, changes in liver-associated enzymes, safety and tolerability.
Patients with diabetes and presumed NASH were randomized into one of three treatment groups, as follows: 1) BUDCA 500 mg BID 2) 1,000 mg BID and 3) matching placebo. Presumed NASH was defined based largely on magnetic resonance imaging derived proton density fat fraction (MRI-PDFF) of 10% or more. Additional inclusion criteria further enriched the study population for having NASH by virtue of requiring corrected T1 (cT1) of more than 830 milliseconds and elevated serum aspartate aminotransferase (AST)≥20 units per liter (6). Subjects had to be overweight or obese with body mass index of 25 kg/m^2 or more.
Study subjects underwent an initial screening evaluation, including measurement of LFC by MRI-PDFF. Subjects were excluded if they had known liver disease other than fatty liver disease or a history of excessive alcohol consumption. Although liver biopsies were not done as a part of this study, subjects with clear evidence of cirrhosis were excluded, based upon a platelet count of less than 150,000/mm^3, serum albumin levels less than […] or a current or previous history of clinical hepatic decompensation.
Those who were deemed eligible were then randomized into one of the three treatment groups described above and underwent a further baseline evaluation at the time of randomization and initial dosing. Subjects were permitted to continue their current treatment regimen for diabetes provided they had been on a stable dose regimen for at least 90 days.
LFC was measured at baseline and after 18 weeks of therapy. In addition, changes in liver chemistry tests, measures of glycemic control and serum lipid levels were also assessed during and at the end of treatment.
Descriptive Statistics were used to summarize continuous data, and frequencies and percentages were used to summarize categorical data. The Safety Set consisted of all subjects who received at least one dose of study treatment. The Modified Efficacy Set is a subset of the Safety Set consisting of subjects that had at least one post-dose MRI-PDFF assessment. […] The primary endpoint was an absolute change from Baseline to Week 18 (or ET) in Liver Fat Content. Primary Endpoint summary measures were provided in both the Efficacy and Modified Efficacy sets, with the Efficacy Set prespecified as the primary analysis set. All other endpoints were prespecified to use the Modified Efficacy Set. Comparisons between active treatment groups relative to placebo were tested using Analysis of Covariance (ANCOVA) with treatment group as a fixed effect and baseline value of the parameters of interest as covariates. ANCOVA based LS Means and raw means have been reported. For statistical analysis of laboratory parameters (i.e. P-values), multiple imputation was used to take missing data into account. A two-sided alpha level of 0.05 without adjustment for multiple tests was used to indicate statistical significance. Analyses were performed using SAS System version 9.4.
Effects of treatment with BUDCA on AST to Platelet Ratio Index (APRI) and Fibrosis-4 (FIB-4) were also measured.

COc1ccc2cc3[n+](cc2c1OC)CCc1cc2c(cc1-3)OCO2.C[C@H](CCC(=O)[O-])[C@H]1CC[C@H]2[C@@H]3[C@@H](O)C[C@@H]4C[C@H](O)CC[C@]4(C)[C@H]3CC[C@]12C [BUDCA, berberine ursodeoxycholate]
Absolute Change in LFC (%), Mean (500 mg BID, 18 weeks, N 30): −2.9% | Relative Change in LFC (%), Mean (500 mg BID, 18 weeks, N 30): −15.1% | Absolute Change in LFC (%), LS Mean (500 mg BID, 18 weeks, P 0.199): −3.2% | Relative Change in LFC (%), LS Mean (500 mg BID, 18 weeks, P 0.196): −15.9% | Mean change in LDL-c (mg/dL), Mean (500 mg BID, 18 weeks, N 27): 5 mg/dL | Mean change in HbA1c (%), Mean (500 mg BID, 18 weeks, N 29): −0.3% | Relative change in GGT (%), Mean (500 mg BID, 18 weeks, N 29): −23% | Mean change in TG (mg/dL), Mean (500 mg BID, 18 weeks, N 29): -41 mg/dL | Mean change in GGT (U/L), Mean (500 mg BID, 18 weeks, N 29): −19 U/L | Mean change in ALT (U/L), Mean (500 mg BID, 18 weeks, N 29): −4 U/L | Relative change in ALT (%), Mean (500 mg BID, 18 weeks, N 29): −6% | Mean change in HbA1c (%), LS Mean (500 mg BID, 18 weeks, P 0.029): −0.4% | Mean change in LDL-c (mg/dL), LS Mean (500 mg BID, 18 weeks, P 0.955): 1 mg/dL | Mean change in TG (mg/dL), LS Mean (500 mg BID, 18 weeks, P 0.041): -36 mg/dL | Mean change in GGT (U/L), LS Mean (500 mg BID, 18 weeks, P 0.005): −20 U/L | Mean change in ALT (U/L), LS Mean (500 mg BID, 18 weeks, P 0.674): −5 U/L | Mean change in Body weight (kg), Mean (500 mg BID, 18 weeks, N 29): -1.6 kg | Mean change in Body weight (kg), LS Mean (500 mg BID, 18 weeks, P 0.554): -1.6 kg | decrease in triglyceride level (500 mg BID, 18 weeks, P=0.04): 41 mg/dL | Proportion achieving ≥ 30% relative reduction in LFC (subjects/total) (500 mg BID, 18 weeks): 6/31 | Proportion achieving ≥ 5% Absolute Reduction in LFC (subjects/total) (500 mg BID, 18 weeks): 10/31 | Proportion achieving ≥ 30% relative reduction in LFC (percent) (500 mg BID, 18 weeks): (19%) | Proportion achieving ≥ 5% Absolute Reduction in LFC (percent) (500 mg BID, 18 weeks): (32%) | decrease in mean HbA1c level (500 mg BID, 18 weeks): 0.3% | Absolute Change in LFC (%), Mean (1,000 mg BID, 18 weeks, N 27): −4.8% | Relative Change in LFC (%), Mean (1,000 mg BID, 18 weeks, N 27): −24.1% | Absolute Change in LFC (%), LS Mean (1,000 mg BID, 18 weeks, P 0.011): −4.7% | Relative Change in LFC (%), LS Mean (1,000 mg BID, 18 weeks, P 0.016): −23.3% | Mean change in LDL-c (mg/dL), Mean (1,000 mg BID, 18 weeks, N 25): -16 mg/dL | Mean change in HbA1c (%), Mean (1,000 mg BID, 18 weeks, N 26): −0.6% | Relative change in GGT (%), Mean (1,000 mg BID, 18 weeks, N 26): −29% | Mean change in TG (mg/dL), Mean (1,000 mg BID, 18 weeks, N 26): -24 mg/dL | Mean change in GGT (U/L), Mean (1,000 mg BID, 18 weeks, N 26): −30 U/L | Mean change in ALT (U/L), Mean (1,000 mg BID, 18 weeks, N 26): −19 U/L | Relative change in ALT (%), Mean (1,000 mg BID, 18 weeks, N 26): −21% | Mean change in HbA1c (%), LS Mean (1,000 mg BID, 18 weeks, P 0.005): −0.5% | Mean change in LDL-c (mg/dL), LS Mean (1,000 mg BID, 18 weeks, P 0.072): -12 mg/dL | Mean change in TG (mg/dL), LS Mean (1,000 mg BID, 18 weeks, P 0.120): -24 mg/dL | Mean change in GGT (U/L), LS Mean (1,000 mg BID, 18 weeks, P <0.001): −25 U/L | Mean change in ALT (U/L), LS Mean (1,000 mg BID, 18 weeks, P 0.007): −16 U/L | Mean change in Body weight (kg), Mean (1,000 mg BID, 18 weeks, N 27): -3.5 kg | Mean change in Body weight (kg), LS Mean (1,000 mg BID, 18 weeks, P 0.012): -3.5 kg | average body weight loss (1,000 mg BID, 18 weeks, P=0.012): 3.5 kg | absolute LFC decrease, average (1,000 mg BID, 18 weeks, placebo 2.0%, p=0.011): 4.8% | Proportion achieving ≥ 30% relative reduction in LFC (subjects/total) (1,000 mg BID, 18 weeks): 10/30 | Proportion achieving ≥ 5% Absolute Reduction in LFC (subjects/total) (1,000 mg BID, 18 weeks): 12/30 | relative decrease in LFC (1,000 mg BID, 18 weeks, placebo 8.3%, p=0.016): 24.1% | Proportion achieving ≥ 30% relative reduction in LFC (percent) (1,000 mg BID, 18 weeks): (33%) | Proportion achieving ≥ 5% Absolute Reduction in LFC (percent) (1,000 mg BID, 18 weeks): (40%) | decrease in mean HbA1c level (1,000 mg BID, 18 weeks): 0.6% | proportion of subjects showing improvements in APRI to thresholds associated with less severe fibrosis, vs placebo (1,000 mg, 18 weeks): approximately 2 fold | proportion of subjects showing improvements in FIB-4 to thresholds associated with less severe fibrosis, vs placebo (1000 mg, 18 weeks): approximately 4 fold | reduction in APRI vs placebo (1,000 mg, after 18 weeks (FIG. 6)): approximately 3 fold | reduction in FIB-4 vs placebo (1000 mg, after 18 weeks (FIG. 7)): approximately 3 fold | percentage of subjects achieving ALT reductions vs placebo (18 weeks (FIG. 8)): greater percentage | Pro-C3 vs placebo (18 weeks (FIG. 9)): No significant differences | enhanced liver fibrosis (ELF) score vs placebo (18 weeks (FIG. 9)): No significant differences | change in HOMA-IR (BUDCA therapy, 18 weeks): No significant changes | change in level of HDL-c (BUDCA therapy, 18 weeks): no significant change | change in level of blood glucose (BUDCA therapy, 18 weeks): No significant changes | change in level of insulin (BUDCA therapy, 18 weeks): No significant changes | average decrease in level of LDL-c (high dose group (1,000 mg BID), 18 weeks, P=0.072): 16 mg/dL
